# Laboratory results taken from ChEMBL document CHEMBL1909046, “DrugMatrix in vitro pharmacology data”.
# Assays:
# [1] = DRUGMATRIX: GABAA, Chloride Channel, TBOB radioligand binding (ligand: [3H] TBOB); assay type: cell membranes, Rattus norvegicus, Wistar, Cerebral cortex, Membrane; details: Not Active = under 50% inhibition at 10 µM
# [2] = DRUGMATRIX: Leukotriene, BLT (LTB4) radioligand binding (ligand: [3H]LTB4); assay type: cell membranes, Membrane; details: u-937, Not Active = under 50% inhibition at 10 µM
# Cytochrome P450 2D6 = Cytochrome P450 2D6 (Homo sapiens, UniProt P10635); also: in other assays of this panel Not Active means under 50% inhibition at 10 µM
# Cytochrome P450 2D6, sequence (P10635 whole entry): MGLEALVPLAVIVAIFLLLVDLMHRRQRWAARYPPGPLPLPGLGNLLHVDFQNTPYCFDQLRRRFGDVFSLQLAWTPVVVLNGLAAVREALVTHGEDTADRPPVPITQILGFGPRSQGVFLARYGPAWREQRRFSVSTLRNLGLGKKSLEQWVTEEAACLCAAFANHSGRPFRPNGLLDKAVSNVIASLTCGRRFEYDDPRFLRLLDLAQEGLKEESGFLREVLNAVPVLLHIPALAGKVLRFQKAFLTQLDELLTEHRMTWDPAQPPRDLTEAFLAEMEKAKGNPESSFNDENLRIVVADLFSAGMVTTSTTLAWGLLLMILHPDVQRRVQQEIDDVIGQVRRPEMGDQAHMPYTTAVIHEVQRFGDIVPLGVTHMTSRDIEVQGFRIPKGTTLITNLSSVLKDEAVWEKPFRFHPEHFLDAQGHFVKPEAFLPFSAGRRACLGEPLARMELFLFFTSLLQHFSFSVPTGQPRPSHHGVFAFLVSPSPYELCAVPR
# Androgen receptor = target: T1, Androgen receptor (Rattus norvegicus, UniProt P15207); also: in other assays of this panel Not Active means under 50% inhibition at 10 µM
# T1 sequence (P15207 whole entry): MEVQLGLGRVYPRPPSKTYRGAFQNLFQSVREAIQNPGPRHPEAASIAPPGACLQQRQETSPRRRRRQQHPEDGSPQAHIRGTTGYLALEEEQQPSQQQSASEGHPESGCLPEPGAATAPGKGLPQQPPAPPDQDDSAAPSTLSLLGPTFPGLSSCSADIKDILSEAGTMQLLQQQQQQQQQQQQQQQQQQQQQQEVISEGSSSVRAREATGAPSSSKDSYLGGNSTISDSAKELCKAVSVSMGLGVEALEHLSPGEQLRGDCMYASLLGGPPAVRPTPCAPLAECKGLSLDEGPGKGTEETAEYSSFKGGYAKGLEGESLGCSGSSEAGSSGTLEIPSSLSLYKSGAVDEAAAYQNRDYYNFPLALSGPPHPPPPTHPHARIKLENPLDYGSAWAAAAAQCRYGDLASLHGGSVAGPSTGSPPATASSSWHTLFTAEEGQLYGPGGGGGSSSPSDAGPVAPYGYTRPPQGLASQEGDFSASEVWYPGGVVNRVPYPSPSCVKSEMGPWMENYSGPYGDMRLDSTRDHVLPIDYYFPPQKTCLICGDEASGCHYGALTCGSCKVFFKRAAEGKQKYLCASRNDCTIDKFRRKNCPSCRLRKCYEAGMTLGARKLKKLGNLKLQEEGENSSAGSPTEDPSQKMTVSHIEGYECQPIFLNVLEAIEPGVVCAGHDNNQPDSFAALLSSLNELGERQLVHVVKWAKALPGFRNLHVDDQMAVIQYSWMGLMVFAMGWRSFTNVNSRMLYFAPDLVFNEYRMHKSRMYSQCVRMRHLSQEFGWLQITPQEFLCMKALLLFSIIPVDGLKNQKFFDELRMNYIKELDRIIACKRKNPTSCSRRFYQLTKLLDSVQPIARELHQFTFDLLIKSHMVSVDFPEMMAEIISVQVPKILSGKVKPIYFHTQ
# Glucocorticoid receptor = target: T2, Glucocorticoid receptor (Homo sapiens, UniProt P04150); assay: biochemical; also: in other assays of this panel Not Active means under 50% inhibition at 10 µM
# T2 sequence (P04150 whole entry): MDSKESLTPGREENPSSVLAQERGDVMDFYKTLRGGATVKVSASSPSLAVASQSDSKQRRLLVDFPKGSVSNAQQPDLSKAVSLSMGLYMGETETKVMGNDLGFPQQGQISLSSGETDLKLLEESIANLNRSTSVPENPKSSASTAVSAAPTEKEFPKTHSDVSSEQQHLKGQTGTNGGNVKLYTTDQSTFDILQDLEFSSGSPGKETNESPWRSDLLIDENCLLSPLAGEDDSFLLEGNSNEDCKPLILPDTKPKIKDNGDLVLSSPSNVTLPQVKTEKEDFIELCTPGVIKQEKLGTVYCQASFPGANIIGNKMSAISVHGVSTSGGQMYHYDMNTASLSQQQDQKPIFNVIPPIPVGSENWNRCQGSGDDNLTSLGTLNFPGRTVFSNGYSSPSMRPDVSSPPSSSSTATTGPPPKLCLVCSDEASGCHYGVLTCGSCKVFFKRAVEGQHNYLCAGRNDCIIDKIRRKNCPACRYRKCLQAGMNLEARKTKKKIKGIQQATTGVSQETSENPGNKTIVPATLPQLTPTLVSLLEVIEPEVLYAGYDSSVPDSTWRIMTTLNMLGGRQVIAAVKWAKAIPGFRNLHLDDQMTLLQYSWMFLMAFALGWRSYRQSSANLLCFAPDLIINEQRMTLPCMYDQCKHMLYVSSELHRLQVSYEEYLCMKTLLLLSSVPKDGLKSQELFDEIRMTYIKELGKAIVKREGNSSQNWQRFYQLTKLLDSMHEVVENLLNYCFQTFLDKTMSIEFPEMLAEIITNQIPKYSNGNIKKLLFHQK
# Cytochrome P450 1A2 = target: T3, Cytochrome P450 1A2 (Homo sapiens, UniProt P05177); also: in other assays of this panel Not Active means under 50% inhibition at 10 µM
# T3 sequence (P05177 whole entry): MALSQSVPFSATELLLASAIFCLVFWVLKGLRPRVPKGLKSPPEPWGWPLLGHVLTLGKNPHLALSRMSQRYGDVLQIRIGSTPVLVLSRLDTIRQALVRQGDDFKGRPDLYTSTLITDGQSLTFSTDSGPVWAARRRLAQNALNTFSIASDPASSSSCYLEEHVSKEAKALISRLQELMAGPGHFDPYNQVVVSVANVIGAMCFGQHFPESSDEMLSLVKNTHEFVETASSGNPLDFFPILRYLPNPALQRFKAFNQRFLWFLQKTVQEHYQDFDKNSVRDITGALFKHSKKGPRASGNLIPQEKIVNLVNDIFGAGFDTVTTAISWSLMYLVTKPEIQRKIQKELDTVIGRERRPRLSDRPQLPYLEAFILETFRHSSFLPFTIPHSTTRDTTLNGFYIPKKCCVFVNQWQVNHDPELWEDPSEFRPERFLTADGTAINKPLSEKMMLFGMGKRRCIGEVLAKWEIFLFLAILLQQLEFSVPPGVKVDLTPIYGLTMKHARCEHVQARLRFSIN
# Cytochrome P450 2C19 = Cytochrome P450 2C19 (Homo sapiens, UniProt P33261); also: in other assays of this panel Not Active means under 50% inhibition at 10 µM
# Cytochrome P450 2C19, sequence (P33261 whole entry): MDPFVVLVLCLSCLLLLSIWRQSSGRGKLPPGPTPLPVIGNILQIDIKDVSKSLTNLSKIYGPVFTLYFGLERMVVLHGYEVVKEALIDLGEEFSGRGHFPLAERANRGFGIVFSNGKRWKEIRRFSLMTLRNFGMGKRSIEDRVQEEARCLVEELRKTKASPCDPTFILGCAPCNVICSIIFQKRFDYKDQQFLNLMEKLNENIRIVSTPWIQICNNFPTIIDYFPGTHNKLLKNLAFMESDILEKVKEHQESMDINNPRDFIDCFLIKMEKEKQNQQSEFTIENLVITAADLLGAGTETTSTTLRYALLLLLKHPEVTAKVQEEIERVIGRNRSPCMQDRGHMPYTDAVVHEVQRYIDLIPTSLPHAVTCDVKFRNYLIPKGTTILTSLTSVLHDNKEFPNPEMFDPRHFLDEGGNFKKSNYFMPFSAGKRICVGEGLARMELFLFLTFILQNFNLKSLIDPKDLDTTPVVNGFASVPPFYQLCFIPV
Compound,IC50 [1],Ki [1],IC50 [2],Ki [2],further results
N[C@@H](Cc1ccc(N(CCCl)CCCl)cc1)C(=O)O,Not Active,Not Active,Not Active,Not Active,
CC(C)N1CCN(c2ccc(OCC3COC(Cn4cncn4)(c4ccc(Cl)cc4Cl)O3)cc2)CC1 (stereo not drawn) [TERCONAZOLE],Not Active,Not Active,,,IC50 ([2]; read-out: IC50): 24900 nM; Ki ([2]; read-out: Ki): 6320 nM
Cc1nc2n(c(=O)c1CCN1CCC(c3noc4cc(F)ccc34)CC1)CCCC2 [RISPERIDONE],,,,,IC50 (Cytochrome P450 2D6): 5270 nM
N[C@@H]1[C@H]2CN(c3nc4c(cc3F)c(=O)c(C(=O)O)cn4-c3ccc(F)cc3F)C[C@@H]12 [TROVAFLOXACIN],Not Active,Not Active,Not Active,Not Active,IC50 (Androgen receptor): Not Active
O=c1ncn2nc(Sc3ccc(F)cc3F)ccc2c1-c1c(Cl)cccc1Cl [NEFLAMAPIMOD],Not Active,Not Active,Not Active,Not Active,IC50 (Androgen receptor): Not Active
CC[C@]1(O)C[C@H]2CN(CCc3c([nH]c4ccccc34)[C@@](C(=O)OC)(c3cc4c(cc3OC)N(C=O)[C@H]3[C@@](O)(C(=O)OC)[C@H](OC(C)=O)[C@]5(CC)C=CCN6CC[C@]43[C@@H]65)C2)C1 [VINCRISTINE],Not Active,Not Active,Not Active,Not Active,IC50 (Androgen receptor): Not Active
CO[C@H]1/C=C/O[C@@]2(C)Oc3c(C)c(O)c4c(O)c(c(/C=N/N5CCN(C)CC5)c(O)c4c3C2=O)NC(=O)/C(C)=C\C=C\[C@H](C)[C@H](O)[C@@H](C)[C@@H](O)[C@@H](C)[C@H](OC(C)=O)[C@@H]1C [RIFAMPIN],Not Active,Not Active,Not Active,Not Active,
Cc1noc(NS(=O)(=O)c2ccc(N)cc2)c1C [SULFISOXAZOLE],Not Active,Not Active,Not Active,Not Active,
NS(=O)(=O)c1cc2c(cc1Cl)NC(C(Cl)Cl)NS2(=O)=O (stereo not drawn) [TRICHLORMETHIAZIDE],Not Active,Not Active,Not Active,Not Active,
COc1nc(C)nc(Cl)c1NC1=NCCN1 [MOXONIDINE],Not Active,Not Active,Not Active,Not Active,
Nc1nc2ccc(OC(F)(F)F)cc2s1 [RILUZOLE],Not Active,Not Active,Not Active,Not Active,
CC1(C)O[C@@H]2C[C@H]3[C@@H]4CCC5=CC(=O)C=C[C@]5(C)[C@@]4(F)[C@@H](O)C[C@]3(C)[C@]2(C(=O)CO)O1 [TRIAMCINOLONE ACETONIDE],Not Active,Not Active,Not Active,Not Active,IC50 (Glucocorticoid receptor): 4.41 nM; Ki (Glucocorticoid receptor): 2.01 nM
CSc1ccc(/C=C2/C(C)=C(CC(=O)O)c3cc(F)ccc32)cc1 [SULINDAC SULFIDE],Not Active,Not Active,Not Active,Not Active,IC50 (Cytochrome P450 1A2): 2000 nM; IC50 (Androgen receptor): Not Active
Nc1c2c(nc3ccccc13)CCCC2 [TACRINE],Not Active,Not Active,Not Active,Not Active,IC50 (Cytochrome P450 2D6): 300 nM
CN1CCN(CCCN2c3ccccc3Sc3ccc(Cl)cc32)CC1 [PROCHLORPERAZINE],,,,,IC50 (Cytochrome P450 1A2): 2000 nM
N[C@@H](Cc1ccc(O)c(O)c1)C(=O)O [LEVODOPA],Not Active,Not Active,Not Active,Not Active,

Compound,IC50 [1],Ki [1],IC50 [2],Ki [2],further results
O=NN(CCCl)C(=O)NC1CCCCC1 [LOMUSTINE],Not Active,Not Active,Not Active,Not Active,
CCOC(=O)N1CCC(=C2c3ccc(Cl)cc3CCc3cccnc32)CC1 [LORATADINE],Not Active,Not Active,Not Active,Not Active,
Cc1cccc(N(C)C(=S)Oc2ccc3ccccc3c2)c1 [TOLNAFTATE],Not Active,Not Active,Not Active,Not Active,IC50 (Cytochrome P450 2C19): 3000 nM
NC[C@H]1CC[C@H](C(=O)O)CC1 [TRANEXAMIC ACID],Not Active,Not Active,Not Active,Not Active,
CC[C@@H](CO)NC(=O)[C@@H]1C=C2c3cccc4[nH]cc(c34)C[C@H]2N(C)C1 [METHYLERGONOVINE],Not Active,Not Active,Not Active,Not Active,IC50 (Androgen receptor): Not Active
c1ccc([C@H]2CN3CCSC3=N2)cc1 [LEVAMISOLE],Not Active,Not Active,Not Active,Not Active,
OCCN(CCO)c1nc(N2CCCCC2)c2nc(N(CCO)CCO)nc(N3CCCCC3)c2n1 [DIPYRIDAMOLE],Not Active,Not Active,Not Active,Not Active,IC50 (Androgen receptor): Not Active
CC(C)(C)NC(=O)[C@@H]1C[C@@H]2CCCC[C@@H]2CN1C[C@@H](O)[C@H](Cc1ccccc1)NC(=O)[C@H](CC(N)=O)NC(=O)c1ccc2ccccc2n1,Not Active,Not Active,Not Active,Not Active,
Nc1nc2nc[nH]c2c(=S)[nH]1 [THIOGUANINE],Not Active,Not Active,Not Active,Not Active,IC50 (Androgen receptor): Not Active
SODIUM NITROPRUSSIDE,Not Active,Not Active,Not Active,Not Active,IC50 (Androgen receptor): Not Active; Ki (Androgen receptor): Not Active
Cn1ccnc1S [METHIMAZOLE],Not Active,Not Active,Not Active,Not Active,
Cc1oncc1C(=O)Nc1ccc(C(F)(F)F)cc1 [LEFLUNOMIDE],Not Active,Not Active,Not Active,Not Active,IC50 (Cytochrome P450 1A2): 500 nM
COc1c(C)c2c(c(O)c1C/C=C(\C)CCC(=O)O)C(=O)OC2 [MYCOPHENOLIC ACID],Not Active,Not Active,Not Active,Not Active,
CCCOc1ccccc1-c1nc2nn[nH]c2c(=O)[nH]1 [ZAPRINAST],Not Active,Not Active,Not Active,Not Active,
C=CCC1(C(C)CCC)C(=O)NC(=O)NC1=O (stereo not drawn) [SECOBARBITAL],Not Active,Not Active,Not Active,Not Active,
N#CC(C#N)=Cc1ccc(O)c(O)c1 [TYRPHOSTIN 23],Not Active,Not Active,Not Active,Not Active,IC50 (Androgen receptor): Not Active
